US20160067272A1, “METHODS FOR TREATING IMMUNE DISEASES” (priority 2013, published 2016)

Tests used:
[1] = system: Human peripheral blood CD4+ T cells; assay: Human CD4+ T cells under Th1 polarizing conditions (flow cytometry); type: cell-based; conditions: increasing NAD+
Procedure: The inventors next investigated whether NAD^− regulates CD4^+ T cell differentiation in Th1 polarizing conditions. Isolated naïve CD4^+ T cells were cultured with anti-CD3/CD28 antibodies in presence of recombinant IL-12 and IL-2 cytokines and anti-IL4 antibody. […] In contrast to Th0 polarizing conditions, NAD^+ induced a robust IL-10 secretion (>3500 pg/ml) in Th1 cytokine environment (FIG. 1A). Furthermore, pro-inflammatory cytokines such as TNF-α and IL-6 were reduced by NAD^+ (FIG. 7C). […] Furthermore, the study tested whether NAD^+ promoted the shift of human CD4^+ T helper cells in Th1 polarizing conditions towards IL-10 cytokine production. Human peripheral blood CD4^| T cells were activated with anti-CD3/CD28 antibodies under Th1 polarizing conditions (recombinant IL-12 and IL-2 cytokines and anti-IL4 antibody) with increasing concentrations of NAD+. After 96 hours of culture, CD4^+IL-10^+IFNγ^+ cell frequency was assessed by flow cytometry analysis. […]
(§1) All recombinant cytokines and antibodies were purchased from EBIOSCIENCE except recombinant TGF-β cytokine (R&D SYSTEMS, Minneapolis, Minn.). After 96 hrs of culture supernatants and cells were collected and analyzed by ELISA and flow cytometry, respectively.

[2] = system: naïve CD4+ T cells; assay: Naïve CD4+ T cell differentiation without polarizing cytokines (Th0); type: cell-based, mouse
Procedure: It has been shown that NAD^+ can regulate T cell activation^36-38, but its role in T cell development was not shown. In this study, it was tested whether NAD^+ was able to regulate T cell differentiation in vitro. Naïve CD4^+ T cells were isolated from spleen of DBA mice and cultured for 96 hrs in presence of increasing NAD^+ concentration and in presence of recombinant IL-2 and stimulated with anti-CD3/CD28 antibodies. Cytokine expression and secretion were analyzed by flow cytometry and ELISA, respectively. […] Of note, the production of pro-inflammatory cytokines such as IL-6 and TNF-α or the immunosuppressive cytokine IL-10 were inhibited by NAD^| (FIG. 7A).
(§2) Single-cell leukocyte suspensions were obtained from spleens from 8-10 week old DBA mice and CD4^− T cells were isolated by negative selection using a CD4^+ T cell isolation kit (MILTENYI BIOTEC, Bergisch Gladbach, Germany). Cells were further sorted using α-CD4-PE (EBIOSCIENCE, San Diego, Calif.) and purities of CD4^+ T cells after isolation were >98%.
as §1
(§3) Fluorescently labeled anti-mouse α-CD4 (GK1.5), α-CD25 (PC61), α-IFN-γ (XMG1.2) and unlabeled α-CD16/CD32 (2.4G2) antibodies were obtained from BD BIOSCIENCES (San Jose, Calif.). Fluorescently labeled anti-mouse α-IL-4 (FJK-16s), α-IL-10 (JES5-16E3), α-IL-17A (eBio17B7), and anti-TGFβ (TW7-16B4) were obtained from eBIOSCIENCE (San Diego, Calif.). Intracellular staining for IL-4, IL-10, IL-17A, IFNγ and TGFβ was performed according to manufacturers' protocols. Splenocytes were re-stimulated in complete media (RPMI media containing 10% FCS, 1% L-Glutamine, 1% Penicillin/Streptomycin; all Bio Whittaker, Walkersville, Md.) for 4 hours at 37° C. with ionomycin, phorbol 12-myristate 13-acetate and Brefelding A (EBIOSCIENCE). Cells were fixed and permeabilized using CYTOFIX/CYTOPERM solution (BD BIOSCIENCES). Flow cytometry measurements of single-cell suspensions were performed on a FACSCalibur using standard procedures and data were analyzed using FLOWJO software (TREE STAR, Ashland, Oreg.).

[3] = system: naïve CD4+ T cells; assay: Naïve CD4+ T cell differentiation under Th17 polarizing conditions; type: cell-based, mouse
From the text: To elucidate the role of NAD^+ on CD4^− T cell differentiations in Th17 polarizing conditions, isolated naïve CD4^+ T cells were activated with anti-CD3/CD28 antibodies in the presence of recombinant TGFβ, IL-6 and anti-IL-4, anti-IL-12, and anti-IFNγ antibodies. […] Of note, expression of the pro-inflammatory cytokine TNF-α was inhibited in presence of NAD^+ (FIG. 1E).
as §2, §1, §3

[4] = system: tryptophan hydroxylase-1 (Tph-1) and carboxypeptidase A3 (CA3); assay: Gene expression in CD4+ T cells (microarray, qPCR); type: cell-based, mouse
From the text: After successive washes, RNA was eluted.

[5] = system: P2RX4, P2RX7, P2RY1, P2RY2, P2RY4; assay: Purinergic receptor expression in nTregs (real-time PCR, immunofluorescence); type: cell-based, mouse; conditions: 24 hrs
[6] = nTregs, anti-CD3/CD28, with vs without NAD+

NC(=O)c1ccc[n+]([C@@H]2O[C@H](COP(=O)([O-])OP(=O)(O)OC[C@H]3O[C@@H](n4cnc5c(N)ncnc54)[C@H](O)[C@@H]3O)[C@@H](O)[C@H]2O)c1 [NAD+, nicotinamide adenine dinucleotide]
IL-17A [1]: moderate increase
IL-10 cytokine production by CD4+IFN-γ producing cells ([1]; flow cytometry): robust IL-10 cytokine production
IFNγ cytokine production ([2]; Th0, 96 hrs, ELISA): promote a robust
IL-4 cytokine production ([2]; Th0, 96 hrs, ELISA): inhibit
IL-6 production ([2]; Th0, 96 hrs, ELISA): inhibited
IL-10 production ([2]; Th0, 96 hrs, ELISA): inhibited
IL-17 cytokine production ([2]; Th0, 96 hrs, ELISA): promote a robust
TNF-α production ([2]; Th0, 96 hrs, ELISA): inhibited
CD4+IFNγ+ cell frequency ([2]; Th0, flow cytometry): increased
CD4+IL-4+ cell frequency ([2]; Th0, flow cytometry): reduced
CD4+IL-17+ cell frequency ([2]; Th0, flow cytometry): increased
TGFβ production ([2]; Th0 polarizing conditions): no TGFβ production
IL-10 cytokine production ([3]; ELISA): reduced
IL-17 cytokine production ([3]; ELISA): did not affect
TNF-α expression ([3]; ELISA): inhibited
CD4+IL-17A+ cells ([3]; flow cytometry): no changes
carboxypeptidase A3 (CA3) (microarray) ([4]; during CD4+ T helper cell differentiation): activate
Tph-1 expression (qPCR) ([4]; with vs without NAD+): up-regulation
expression of P2RX4 receptor on the cell surface ([5]; immunofluorescence, 50 μM NAD): increased
expression of P2RX7 receptor on the cell surface ([5]; immunofluorescence, 50 μM NAD): increased
P2RX4 mRNA expression level [5, 6]: > 4 fold
P2RX7 mRNA expression level [5, 6]: > 15 fold
P2RY1 mRNA level ([5]; nTregs, with vs without NAD+): remained unchanged
P2RY2 mRNA level ([5]; nTregs, with vs without NAD+): remained unchanged
P2RY4 mRNA level ([5]; nTregs, with vs without NAD+): remained unchanged
